In one test the test system is murine motoneurons. Briefly: In vitro neurite outgrowth of motoneurons. The class given is cell-based, C57BL/6J mice. The settings on record: tegaserod, cisapride, GR113808 100 nM; colominic acid 3 µM; PSA mimicking peptide 30 µM; Figure 2B. The procedure:
(§1) Primary cultures of cerebellar neurons or Schwann cells were prepared from cerebellum or dorsal root ganglia of 7-day-old C57BL/6J mice as described in Mehanna et al. (2009), Brain, 132 (Pt 6): 1449-62 and Loers et al. (2005), J. Neurochem., 92(6): 1463-76. Motoneurons were prepared from E14 C57BL/6J mice as described in Simova et al. (2006), Ann. Neurol., 60(4): 430-437. In brief, 48-well plates were coated with 0.01% poly-L-lysine (PLL) or poly-L-ornithine (PLO) overnight at 4°C, washed twice with water and air-dried. Directly before use, plates were washed twice with PBS, and Schwann cells, cerebellar neurons (PLL) or motoneurons (PLO) were seeded at a density of 1.25 x 10^4 (Schwann cells and motoneurons) or 2.5 x 10^4 cells (cerebellar neurons) per well in 250 µl of corresponding serum-free culture medium. Soluble organic compounds were added to the culture 1 h after seeding in increasing concentrations. After maintenance for 24 h at 37°C, cells were fixed with 2.5% glutaraldehyde and stained with 1% methylene blue/toluidine blue in 1% borax. Morphological quantification of neurite or process lengths was performed as described in Mehanna et al. (2009), see above. Schwann cell processes and neurites of cerebellar neurons with a length of at least one cell body diameter were counted and total neurite or process length per cell was determined by counting 50 cells in each of two wells per experiment. At least three independent experiments were performed for each culture. Also, the activity of tegaserod with the PSA peptide mimic and the bacterial PSA analogue, colominic acid, on neurite and process extension experiments was compared.

For test [1], the system named is cerebellar granule neurons (cGNs). Briefly: In vitro neurite outgrowth of cerebellar granule neurons. It is filed as cell-based, C57BL/6J mice. The settings on record: compared to control; Figure 2C, D. The procedure:
as §1

For test [2], the system named is motoneurons isolated from NCAM^-/- mice. Briefly: In vitro neurite outgrowth of NCAM-deficient motoneurons. The class given is cell-based. The settings on record: tegaserod 100 nM; colominic acid 3 µM; PSA mimicking peptide 30 µM; Figure 2B. The procedure:
as §1, with “After maintenance for 24 h at 37°C, cells were fixed with 2.5% glutaraldehyde and stained with 1% methylene blue/toluidine blue in 1% borax.” left out, “At least three independent experiments were performed for each culture. Also, the activity of tegaserod with the PSA peptide mimic and the bacterial PSA analogue, colominic acid, on neurite and process extension experiments was compared.” left out

In test [3] the test system is murine cerebellar granule neurons (cGNs), Schwann cells, and motoneurons. Briefly: In vitro neurite/process outgrowth, statements covering all cell types. The class given is cell-based, C57BL/6J mice. The procedure: as §1

For the compound `COc1cc(N)c(Cl)cc1C(=O)NC1CCN(CCCOc2ccc(F)cc2)CC1OC` (stereo not drawn) [cisapride], in the test with murine motoneurons, the “effect on neurite extension of murine motoneurons (in words)” value (from here on “effect … of murine motoneurons (in words)”) was “no ability to enhance motoneuron neurite extension”. The “effect on neurite outgrowth of cGNs (in words)” value in test [1] was “not observed”.

Consider `Cn1cc(C(=O)OCC2CCN(CCNS(C)(=O)=O)CC2)c2ccccc21` [GR 113808], for which, in the test with murine motoneurons, the “effect … of murine motoneurons (in words)” value is “no ability to enhance motoneuron neurite extension”.

Turning to `NCCc1c[nH]c2ccc(O)cc12` [serotonin], the “effect … of murine motoneurons (in words)” value in the test with murine motoneurons is “no ability to enhance motoneuron neurite extension”. The “effect on neurite outgrowth of cGNs (in words)” value in test [1] is “not observed”.

As to NTHTDPYIYPIDC [PSA mimicking peptide], in the test with murine motoneurons, the “effect … of murine motoneurons (in words)” value is given as “significant stimulatory effect”. Besides, the “effect on neurite extension of NCAM^-/- motoneurons (in words)” value in test [2] is on record as “no enhancement in neurite extension”. Moreover, the “concentration of maximal stimulatory effects” value in test [3] (neurite and process extension of neurons and Schwann cells) was 30 µM. Moreover, the “effect of overdosing / higher concentrations (in words)” value in test [3] (neurons and Schwann cells) is recorded as “did not lead to any negative side effects”.

The values above are taken from patent EP2724723A1, “Tegaserod for use in the treatment of nerve injuries” (Universitätsklinikum Hamburg-Eppendorf, priority 2012, dated 2014).
